Biological target: hERG channel (Homo sapiens (Human), UniProt Q12809)
Assay: hERG-Channel Assay (Assay 3), whole-cell patch clamp
Format: cell-based
Settings: HEK293 cells stably transfected with hERG cDNA, pH 7.4, 35° C.
Source text: hERG-Channel Assay (Assay 3)
• HEK (human embryonic kidney) 293 cells were stably transfected with hERG cDNA. • Pipettes and Solutions:
Cells were superfused with a bath solution containing (mM): NaCl (137), KCl (4.0), MgCl2 (1.0), CaCl2 (1.8), Glucose (10), HEPES (10), pH 7.4 with NaOH. Patch pipettes were made from borosilicate glass tubing using a horizontal puller and filled with pipette solution containing (mM): K-aspartate (130), MgCl2 (5.0), EGTA (5.0), K2ATP (4.0), HEPES (10.0), pH 7.2 with KOH. Resistance of the microelectrodes was in the range between 2 and 5 MΩ.
Stimulation and Recording:
Membrane currents were recorded using an EPC-10 patch clamp amplifier and PatchMaster software. hERG-mediated membrane currents were recorded at 35° C., using the whole-cell configuration of the patch-clamp technique. […] During each inter-pulse interval 4 pulses scaled down by a factor of 0.2 were recorded for a P/n leak subtraction procedure. […]
The different concentrations of the test compound were applied sequentially on each of the different cells investigated. A steady state level of baseline current was measured for at least 6 sweeps prior to the application of the first test compound concentration. […]
Peak current amplitudes were measured 3 ms after the ramp to +40 mV. […]

Sequence of hERG channel (Q12809 whole entry): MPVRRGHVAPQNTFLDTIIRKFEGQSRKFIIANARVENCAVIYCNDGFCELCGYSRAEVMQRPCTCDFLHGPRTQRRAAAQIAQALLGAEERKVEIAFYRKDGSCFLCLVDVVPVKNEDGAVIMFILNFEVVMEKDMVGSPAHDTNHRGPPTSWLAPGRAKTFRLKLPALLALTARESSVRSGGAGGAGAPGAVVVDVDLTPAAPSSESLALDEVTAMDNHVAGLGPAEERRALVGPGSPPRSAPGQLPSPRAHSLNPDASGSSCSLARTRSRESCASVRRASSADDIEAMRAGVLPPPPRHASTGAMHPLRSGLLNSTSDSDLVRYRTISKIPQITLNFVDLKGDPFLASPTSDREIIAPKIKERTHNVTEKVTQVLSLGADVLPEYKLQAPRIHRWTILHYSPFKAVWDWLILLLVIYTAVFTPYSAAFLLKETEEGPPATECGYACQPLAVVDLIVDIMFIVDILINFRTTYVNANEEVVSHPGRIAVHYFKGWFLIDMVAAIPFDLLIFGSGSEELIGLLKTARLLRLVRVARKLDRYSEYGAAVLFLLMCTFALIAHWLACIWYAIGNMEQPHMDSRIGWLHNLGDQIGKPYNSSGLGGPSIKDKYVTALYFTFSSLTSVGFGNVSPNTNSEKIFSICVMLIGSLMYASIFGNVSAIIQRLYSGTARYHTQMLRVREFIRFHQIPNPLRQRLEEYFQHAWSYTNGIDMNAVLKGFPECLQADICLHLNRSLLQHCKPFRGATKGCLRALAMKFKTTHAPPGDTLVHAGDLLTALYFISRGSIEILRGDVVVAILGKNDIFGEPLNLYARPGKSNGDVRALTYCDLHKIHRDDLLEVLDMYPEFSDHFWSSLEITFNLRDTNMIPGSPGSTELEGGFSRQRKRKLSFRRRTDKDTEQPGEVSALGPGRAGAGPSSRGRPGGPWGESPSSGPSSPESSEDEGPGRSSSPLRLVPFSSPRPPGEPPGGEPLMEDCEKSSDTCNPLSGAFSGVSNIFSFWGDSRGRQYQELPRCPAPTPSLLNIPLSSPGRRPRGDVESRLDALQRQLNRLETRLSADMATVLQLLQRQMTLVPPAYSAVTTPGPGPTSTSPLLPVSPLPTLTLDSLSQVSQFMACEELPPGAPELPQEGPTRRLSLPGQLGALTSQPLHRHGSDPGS

## COC1CCC2(CC1)Cc1ccc(C#N)cc1C21N=C(N)N(CC2CCCO2)C1=O (stereo not shown)
  inhibition at 10 µM: 16%
